# Measured values from patent US20240342184A1, “USE OF ENHANCER 3C1 IN PREPARATION OF ENHANCER FOR INTERACTION BETWEEN FXR AND CASPASE 8” (CHINA PHARMACEUTICAL UNIVERSITY, priority 2021, published 2024).
# Tests used:
# [1] = biological target: T1, interaction between FXR protein and Caspase 8 protein (Homo sapiens, UniProt Q14790+Q96RI1); assay: Co-IP/Western blot of the FXR-Caspase 8 interaction in healthy L02 hepatocytes; assay type: cell-based; details: 3C1 at 1, 10, 100 μM for 2 h, FIG. 2
# T1 construct: endogenous in cells; host or cells: L02 human hepatocyte cell line
# T1 sequence (Q96RI1 whole entry): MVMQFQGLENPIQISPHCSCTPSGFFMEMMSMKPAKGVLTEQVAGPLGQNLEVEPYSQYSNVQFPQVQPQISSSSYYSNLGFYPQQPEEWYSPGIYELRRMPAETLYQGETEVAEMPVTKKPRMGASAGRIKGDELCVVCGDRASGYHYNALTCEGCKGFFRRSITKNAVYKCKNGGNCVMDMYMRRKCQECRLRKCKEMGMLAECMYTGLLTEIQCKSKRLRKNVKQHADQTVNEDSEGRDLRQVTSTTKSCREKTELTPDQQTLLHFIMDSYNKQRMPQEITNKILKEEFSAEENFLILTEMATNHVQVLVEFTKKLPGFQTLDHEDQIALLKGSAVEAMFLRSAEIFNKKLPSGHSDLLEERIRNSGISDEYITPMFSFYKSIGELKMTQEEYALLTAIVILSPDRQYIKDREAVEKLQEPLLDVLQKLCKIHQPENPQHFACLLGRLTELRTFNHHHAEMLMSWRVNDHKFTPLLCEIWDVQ
# T1 sequence (Q14790 217-479): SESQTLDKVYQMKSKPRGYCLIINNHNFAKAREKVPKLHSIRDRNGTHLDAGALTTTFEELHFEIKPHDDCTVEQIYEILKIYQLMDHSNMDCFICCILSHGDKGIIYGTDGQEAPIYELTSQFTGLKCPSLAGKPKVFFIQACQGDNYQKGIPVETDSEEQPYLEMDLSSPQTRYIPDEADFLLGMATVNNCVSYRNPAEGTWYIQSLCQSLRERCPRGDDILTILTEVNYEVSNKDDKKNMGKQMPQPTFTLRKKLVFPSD
# Method: 1) Cells were washed twice with pre-chilled phosphate-buffered saline (PBS), an appropriate amount of pre-chilled PBS was added for the last time, a pre-chilled cell scraper was used to scrape the cells from a culture dish or a culture flask, and a suspension was transferred to a 1.5 ml electropolished (EP) tube. After centrifugation at 4° C. and 4000 rpm for 5 min, a supernatant was discarded, an appropriate amount of an NP40 lysis buffer was added, a mixture obtained was shaken evenly, and the cells were ultrasonicated for a total of 3 times (5 s per time) until the cells were completely lysed. After centrifugation at 4° C. and 14000 g for 10 min, a supernatant was transferred to a new EP tube, to obtain a protein lysis buffer. A protein concentration was determined through a bicinchoninic acid (BCA) assay.
# 2) 25 μl of Protein A Beads was taken and blocked with 5% bovine serum albumin (BSA) for 1 h at room temperature, and then washed with the PBS for 3 times, and a supernatant was discarded after centrifugation at 14000 g for 1 min each time. The protein lysis buffer with a uniform concentration was added to the Beads, rocking-turn was performed at 4° C. for 1 h, and a sample was pre-cleared. After centrifugation at 14000 g for 1 min, a supernatant was transferred to a new EP tube. […]
# [2] = test system: human hepatocyte cell line L02; assay: MTT cell viability assay in induced hepatocyte apoptosis models; assay type: cell-based; details: 3C1 at 1, 10, 100 μM, L02 cells
# Method: A human hepatocyte cell line L02 was cultured in complete medium DMEM containing 10% fetal bovine serum (FBS), and placed in a culture incubator containing 5% CO2 at 37° C., and cells in a logarithmic growth phase were inoculated in a 96-well plate at a density of 5×10^3 cells/well. The cells were transfected at 50 nM after 24 h. Hepatocyte apoptosis was induced 48 h later after the transfection. […]
# In addition to an apoptosis reagent, the compound 3C1 of different concentrations (1 μM, 10 μM, and 100 μM) was administered.
# After the time of administration, 20 μl of MTT (5 mg/ml) was added to each well, the cells were further incubated at 37° C. for 4 h, a culture medium was aspirated and discarded, 150 μl of dimethyl sulfoxide (DMSO) was added to each well, incubation was performed at 37° C. for 10 min, and the absorbance was measured at 490 nm.
# [3] = biological target: T1, interaction between FXR protein and Caspase 8 protein; assay: Co-IP/Western blot of the FXR-Caspase 8 interaction in apoptotic L02 hepatocytes; assay type: cell-based; details: L02 cells, ActD/TNFα-induced apoptosis, 3C1 at 1, 10, 100 μM for 2 h, FIG. 3
# Method: A human hepatocyte cell line L02 was cultured in a complete DMEM containing 10% FBS, and placed in a culture incubator containing 5% CO2 for culturing at 37° C., and cells in a logarithmic growth phase were inoculated in a 12-well plate at a density of 2×10^5 cells/well. After 24 h, an apoptosis model was constructed by means of human tumor necrosis factor-related apoptosis-inducing ligand (TRAIL), Actinomycin D (ActD)/tumor necrosis factor alpha (TNFα), and cycloheximide (CHX)/Fas ligand (FasL) methods respectively. Cells were treated with TRAIL at 50 ng/ml for 0, 2, 4, 8, 12, and 24 h, respectively. […] Cells were incubated with ActD/TNFα for 0, 1, 2, 4, 8, and 12 h, respectively. […] Cells were incubated with […] for 0, 2, 4, and 8 h, respectively.
# 1) Cells were washed twice with pre-chilled phosphate-buffered saline (PBS), an appropriate amount of pre-chilled PBS was added for the last time, a pre-chilled cell scraper was used to scrape the cells from a culture dish or a culture flask, and a suspension was transferred to a 1.5 ml electropolished (EP) tube. […] A protein concentration was determined through a bicinchoninic acid (BCA) assay. […]
# C57BL/6 mice = assay: CCl4-induced liver injury of mice; assay type: in vivo, mouse; details: CCl4-injected C57BL/6 mice, 3C1 at 5 or 10 mg/kg/day i.p.
# Method: Before the experiment, C57BL/6 mice were acclimated for one week under the conditions of, room temperature at 22-26° C. and relative humidity of 40-60%, with light alternated with darkness for 12 h. Each mouse was housed in a separate cage with free access to water and food, and their body weights were maintained at 20-22 g. Experimental groups included a blank control group, a model group, a low-dose 3C1 administration group (5 mg/kg), and a high-dose 3C1 administration group (10 mg/kg).
# The C57BL/6 mice in the low-dose 3C1 administration group and the high-dose 3C1 administration group were pre-administered with intraperitoneal injections of 3C1 at a dose of 5 mg/kg/day or 10 mg/kg/day, and the mice in other groups were subject to vehicle control. 3 days later, liver injury was induced by intraperitoneal injections of CCl4, and the control group was administered with mineral oil. The mice were euthanized 48 h later. Blood and livers of the mice were collected.
# After standing at room temperature for 0.5 h, whole blood was centrifuged at 8000 rpm for 10 min, and a supernatant was transferred to a new electropolished (EP) tube to obtain serum. Alanine transaminase (ALT) and aspartate transaminase (AST) were detected according to instructions of ALT and AST assay kits.
# 1) 20 mg of a liver tissue sample from each mouse was weighed, 1.0 ml of RNAiso Plus was added, the samples were homogenized, and a homogenate was transferred to a centrifuge tubes, kept standing at room temperature for 5 min, and centrifuged at 4° C. and 12000 g for 5 min.
# 2) 800 μl of a supernatant was transferred, 160 μl of chloroform was added, and a mixture obtained was vigorously shaken for 15 sec, and then centrifuged at 12000 g for 15 min after standing at room temperature for 5 min. A sample included three layers: a bottom layer as a yellow organic phase, an upper layer as a colorless aqueous phase, and an intermediate layer.
# 3) 300 μl of the upper aqueous phase was carefully transferred to a new tube, 300 μl of isopropanol was added, after inverting and mixing, a mixture obtained stood at room temperature for 10 min, and after centrifugation at 12000 g for 10 min, the supernatant was discarded.
# An RNA precipitate was washed with 1.0 ml of pre-chilled 75% ethanol and then centrifuged at 12000 g for 5 min, and a supernatant was discarded to obtain total RNA, which was reconstituted with 20 μl of DEPC water and diluted to […] after quantification.
# According to a system ratio indicated in the specification, the RNA solution and kit components were prepared into a system with a total volume of 20 μl, and a programmed temperature was set for reverse transcription. Specific ratio requirements were as follows:
# The PCR system is as follows:
# Wuhan Servicebio Co., Ltd. was entrusted to complete H&E staining and Sirius Red staining.
compound,measurement,setting,value
Cc1n[nH]c(=S)nc1Nc1ccc(F)c(Cl)c1 [Compound 3C1],interaction between FXR protein and Caspase 8 protein in healthy cells,[1],obviously enhanced the interaction between FXR protein and Caspase 8 protein in healthy cells in a dose-dependent manner
same,"anti-apoptotic effect (cell viability, MTT)",[2]; ActD 30 min then TNFα 20 ng/ml for 8 h,significant anti-apoptotic effects
same,"anti-apoptotic effect (cell viability, MTT)",[2]; CHX 50 μM 30 min then FasL 50 ng/ml for 8 h,significant anti-apoptotic effects
same,"anti-apoptotic effect (cell viability, MTT)",[2]; TRAIL 50 ng/ml for 24 h,significant anti-apoptotic effects
same,interaction between FXR protein and Caspase 8 protein in apoptotic hepatocytes,[3],could reverse this reduction
same,serum ALT level,C57BL/6 mice; FIG. 5A,significantly reduced the elevated levels
same,serum AST level,C57BL/6 mice; FIG. 5B,significantly reduced the elevated levels
same,"liver pathology, H&E staining",C57BL/6 mice; FIG. 5C,"significant remission in the disorders of liver lobule structures, decreased infiltration of inflammatory cell, and less collagen fibers in the portal area"
same,"liver pathology, Sirius Red staining (red collagen fibers)",C57BL/6 mice; FIG. 5D,hyperplasia of red collagen fibers in the livers was significantly alleviated
same,liver Timp1 mRNA level,"C57BL/6 mice; RT-PCR, P<0.001, FIG. 5E",significantly reduced their mRNA levels (P<0.001) in a dose-dependent manner
same,liver Timp2 mRNA level,"C57BL/6 mice; RT-PCR, P<0.001, FIG. 5F",significantly reduced their mRNA levels (P<0.001) in a dose-dependent manner
